Measured values taken from PubChem BioAssay AID1259407 (Chemical Carcinogenesis Research Information System (CCRIS), 2018).
The source made the active and inactive calls. No rule for the calls is given here.

System: CCRIS mutagenicity, Ames/micronucleus/aberration tests
Assay: CCRIS mutagenicity studies
Description: The CCRIS database contains chemical records with carcinogenicity, mutagenicity, tumor promotion, and tumor inhibition test results. It was developed by the National Cancer Institute (NCI). Data are derived from studies cited in primary journals, current awareness tools, NCI reports, and other sources. Test results have been reviewed by experts in carcinogenesis and mutagenesis.
CCRIS provides historical information from the years 1985 - 2011. It is no longer updated.
This is an archive assay for CCRIS mutagenicity studies.

[1] = Test System: AMES SALMONELLA TYPHIMURIUM, Strain/Indicator: TA1538, Metabolic Activation: NONE, Method: STANDARD PLATE
[2] = Test System: AMES SALMONELLA TYPHIMURIUM, Strain/Indicator: TA98, Metabolic Activation: NONE, Method: STANDARD PLATE
[3] = Test System: AMES SALMONELLA TYPHIMURIUM, Strain/Indicator: TA100, Metabolic Activation: NONE, Method: STANDARD PLATE
[4] = Test System: AMES SALMONELLA TYPHIMURIUM, Strain/Indicator: TA98, Metabolic Activation: NONE, Method: PREINCUBATION

`CC(C)(C)N(Cc1ccccc1)CC(O)c1ccc(O)c(CO)c1` (centres undefined) was tested, and the mutagenic call (Test System: AMES SALMONELLA TYPHIMURIUM, Strain/Indicator: TA98(PKM101), Metabolic Activation: NONE, Method: STANDARD PLATE) was “inactive; negative”, the mutagenic call (Test System: AMES SALMONELLA TYPHIMURIUM, Strain/Indicator: TA100(PKM101), Metabolic Activation: NONE, Method: STANDARD PLATE) was “active; positive” and the mutagenic call (Test System: AMES SALMONELLA TYPHIMURIUM, Strain/Indicator: TA1535, Metabolic Activation: NONE, Method: STANDARD PLATE) was “inactive; negative”. The mutagenic call [1] was “inactive; negative”.
`CC1(C)C[C@H]2C=C(C=O)[C@]34C[C@]3(C(=O)O[C@@H]4O)[C@H]2C1` was tested, and the mutagenic call (Test System: AMES SALMONELLA TYPHIMURIUM, Strain/Indicator: TA98, Metabolic Activation: NONE, Method: SPOT TEST) was “active; positive”, the mutagenic call [2] was “active; positive” and the mutagenic call (Test System: AMES SALMONELLA TYPHIMURIUM, Strain/Indicator: TA100, Metabolic Activation: NONE, Method: SPOT TEST) was “inactive; negative”. For the same compound, the mutagenic call [3] was “active; positive”, the mutagenic call (Test System: AMES SALMONELLA TYPHIMURIUM, Strain/Indicator: TA1535, Metabolic Activation: NONE, Method: SPOT TEST) was “inactive; negative” and the mutagenic call (Test System: AMES SALMONELLA TYPHIMURIUM, Strain/Indicator: TA1538, Metabolic Activation: NONE, Method: SPOT TEST) was “inactive; negative”. The mutagenic call (Test System: AMES SALMONELLA TYPHIMURIUM, Strain/Indicator: TA2637, Metabolic Activation: NONE, Method: STANDARD PLATE) was “active; positive” and the mutagenic call (Test System: CHINESE HAMSTER V-79, Strain/Indicator: V-79/6-THIOGUANINE (HGPRT), Metabolic Activation: NONE) was “inactive; negative”.
In the case of `O=[N+]([O-])c1cccc(Br)c1`, the mutagenic call [4] is reported as “inactive; negative”, the mutagenic call (Test System: AMES SALMONELLA TYPHIMURIUM, Strain/Indicator: TA98, Metabolic Activation: RAT, LIVER, S-9, KANECHLOR 500, Method: PREINCUBATION) is reported as “inactive; negative” and the mutagenic call (Test System: AMES SALMONELLA TYPHIMURIUM, Strain/Indicator: TA100, Metabolic Activation: RAT, LIVER, S-9, KANECHLOR 500, Method: PREINCUBATION) is reported as “active; positive”.
With `NC(Cn1ccnc1)C(=O)O` (centres undefined) the mutagenic call (Test System: AMES SALMONELLA TYPHIMURIUM, Strain/Indicator: TA98, Metabolic Activation: NONE) was “inactive; negative”, the mutagenic call (Test System: AMES SALMONELLA TYPHIMURIUM, Strain/Indicator: TA100, Metabolic Activation: NONE) was “inactive; negative” and the mutagenic call (Test System: AMES SALMONELLA TYPHIMURIUM, Strain/Indicator: TA102, Metabolic Activation: NONE) was “inactive; negative”. The mutagenic call (Test System: AMES SALMONELLA TYPHIMURIUM, Strain/Indicator: TA1535, Metabolic Activation: NONE) was “inactive; negative”, the mutagenic call (Test System: AMES SALMONELLA TYPHIMURIUM, Strain/Indicator: TP2428, Metabolic Activation: NONE) was “inactive; negative” and the mutagenic call (Test System: E. COLI, Strain/Indicator: WP2 UVRA (PKM101), Metabolic Activation: NONE) was “active; positive”.
In the case of `N=c1ccc2c(-c3ccccc3C(=O)O)c3ccc(N)cc3oc-2c1`, the mutagenic call [1] is reported as “inactive; negative” and the mutagenic call (Test System: AMES SALMONELLA TYPHIMURIUM, Strain/Indicator: TA1538, Metabolic Activation: RAT, LIVER, S-9, AROCLOR 1254, Method: STANDARD PLATE) is reported as “inactive; negative”.
For `N.N.[Br-].[Br-].[Pt+2]`, the mutagenic call [4] was “active; positive” and the mutagenic call (Test System: AMES SALMONELLA TYPHIMURIUM, Strain/Indicator: TA100, Metabolic Activation: NONE, Method: PREINCUBATION) was “active; positive”.
With `O=C(/C=C/c1ccc(Br)cc1)c1ccccc1` the mutagenic call [2] was “inactive; negative”, the mutagenic call (Test System: AMES SALMONELLA TYPHIMURIUM, Strain/Indicator: TA98, Metabolic Activation: RAT, LIVER, S-9, AROCLOR 1254, Method: STANDARD PLATE) was “inactive; negative” and the mutagenic call [3] was “inactive; negative”. The mutagenic call (Test System: AMES SALMONELLA TYPHIMURIUM, Strain/Indicator: TA100, Metabolic Activation: RAT, LIVER, S-9, AROCLOR 1254, Method: STANDARD PLATE) was “inactive; negative”.
